The record followed here is ChEMBL document CHEMBL2429713, “Toward drugs for protease-activated receptor 2 (PAR2)” (J Med Chem, 2013).

*1 amine or outer side, *2 acyl side, *3 side chain or, on linkers, in order; H or OH if unused. Where a SMILES comes first, the peptide text is derived from it. [ ]: non-standard residue; d: D form. The star is where a group is joined. X1 = CCCCCCCCCCCCCCCC(=O)OCCOCCOCCNCCC[C@H](N[*:1])C(=O)[*:2]; Phe(4-NO2) = N[C@@H](Cc1ccc([N+](=O)[O-])cc1)C(=O)O; 4Thiazolecarbonyl(2-NH2) = Nc1nc(C(=O)*)cs1; Palmitoyl = CCCCCCCCCCCCCCCC(=O)*; Orn = NCCC[C@H](N)C(=O)O; 2Furoyl = O=C(c1ccco1)*

The target in experiment [1] is T1, Proteinase-activated receptor 2 (Homo sapiens, UniProt P55085).
T1 sequence (P55085 whole entry): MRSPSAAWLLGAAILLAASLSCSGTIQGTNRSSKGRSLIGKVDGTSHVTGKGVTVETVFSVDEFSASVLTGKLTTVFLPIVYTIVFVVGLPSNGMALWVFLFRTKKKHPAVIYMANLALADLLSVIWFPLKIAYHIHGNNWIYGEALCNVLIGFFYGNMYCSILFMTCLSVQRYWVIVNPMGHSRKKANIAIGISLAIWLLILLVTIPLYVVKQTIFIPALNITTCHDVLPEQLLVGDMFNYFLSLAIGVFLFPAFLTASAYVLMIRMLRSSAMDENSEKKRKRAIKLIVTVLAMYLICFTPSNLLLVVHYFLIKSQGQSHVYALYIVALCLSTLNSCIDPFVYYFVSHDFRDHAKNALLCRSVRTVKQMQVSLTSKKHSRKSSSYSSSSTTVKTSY
In words: Antagonist activity at PAR2 in human HT-29 cells assessed as inhibition of agonist-induced calcium mobilization. The experiment is classed as functional, cell-based. Background: Calcium flux is commonly read through the fluorescence of an indicator in the cells.

In experiment [2] the target is T1, Proteinase-activated receptor 2. In words: Antagonist activity at PAR2 in human HCT15 cells assessed as inhibition of SLIGKV-NH2-induced intracellular calcium release. The experiment is classed as functional, cell-based, HCT-15.
Experiment [3] shares this target. In words: Antagonist activity at PAR2 in human HT-29 cells assessed as inhibition of 2f-LIGRLO-NH2-induced intracellular calcium release. Format: functional, cell-based.
The target is the same in experiment [4]. The experiment can be described thus: Antagonist activity at PAR2 in human HT-29 cells assessed as inhibition of trypsin-induced intracellular calcium release. Format: functional, cell-based.
For experiment [5] the target is unchanged. The experiment can be described thus: Antagonist activity at human PAR2 expressed in human NCTC-2544 cells assessed as inhibition of SLIGKV-NH2-induced NFkappaB activation preincubated for 15 to 30 mins followed by SLIGKV-NH2 addition measured after 6 hrs by luciferase reporter gene assay. The experiment is classed as cell-based. In general terms: A reporter such as luciferase makes a cellular process visible.

Experiment [6] shares this target. In words: Displacement of [3H]2-furoyl-LIGRL-NH2 from human PAR2 expressed in human NCTC-2544 cells by scintillation counting analysis. The experiment is classed as cell-based. For orientation: Displacement assays read how much labelled ligand stays bound in the presence of the test substance.
Experiment [7] shares this target. In words: Agonist activity at human PAR2 expressed in HEK293T cells assessed as increase in intracellular calcium level by bioluminescence assay. Format: functional, cell-based, HEK-293T.
Experiment [8] shares this target. The experiment can be described thus: Agonist activity at human PAR2 expressed in HEK293T cells assessed as stimulation of phosphatidylinositol hydrolysis after 45 mins by scintillation counting analysis. The experiment is classed as functional, cell-based, HEK-293T.
The target is the same in experiment [9]. The experiment can be described thus: Agonist activity at PAR2 in human HT-29 cells assessed as increase in intracellular calcium release. Format: functional, cell-based.
Experiment [10] has the same target. In words: Displacement of [3H]-2-furoyl-LIGRL-NH2 from human PAR2 expressed in human NCTC-2544 cells after 60 mins by scintillation counting analysis. Format: cell-based.
In experiment [11] the target is T2, Proteinase-activated receptor 2 (Rattus norvegicus, UniProt Q63645).
T2 sequence (Q63645 whole entry): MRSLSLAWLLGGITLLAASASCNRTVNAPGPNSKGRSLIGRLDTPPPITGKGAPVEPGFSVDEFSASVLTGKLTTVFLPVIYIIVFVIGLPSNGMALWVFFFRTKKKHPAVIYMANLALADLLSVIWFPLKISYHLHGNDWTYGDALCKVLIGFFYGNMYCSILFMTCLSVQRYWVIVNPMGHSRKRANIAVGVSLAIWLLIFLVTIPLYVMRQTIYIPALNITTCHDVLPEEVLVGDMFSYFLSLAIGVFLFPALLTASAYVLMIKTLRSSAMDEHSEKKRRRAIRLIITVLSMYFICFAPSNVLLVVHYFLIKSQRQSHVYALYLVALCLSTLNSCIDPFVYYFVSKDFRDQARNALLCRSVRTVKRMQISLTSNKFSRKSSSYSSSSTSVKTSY
In words: Antagonist activity at rat PAR2 expressed in rat KNRK cells assessed as inhibition of trypsin-induced receptor activation. Format: cell-based.

Experiment [12] concerns the target T1, Proteinase-activated receptor 2. The experiment can be described thus: Antagonist activity at PAR2 in human HaCaT cells assessed as inhibition of SLIGKV-NH2-induced intracellular calcium release. Format: functional, cell-based.
The target is the same in experiment [13]. In words: Agonist activity at PAR2 (unknown origin) by cell-based assay.
Experiment [14] has as its target Proteinase-activated receptor 2 (Homo sapiens) (UniProt P55085). The experiment can be described thus: Antagonist activity at PAR2 in human SW620 cells assessed as inhibition of SLIGRL-NH2-induced intracellular calcium release at 6 uM relative to control. Format: functional, cell-based. Also on record: scale not given: the % may be the effect or the level left. Conditions: SW-620.

Experiment [15] addresses T3, Proteinase-activated receptor 1 (Homo sapiens, UniProt P25116).
T3 sequence (P25116 whole entry): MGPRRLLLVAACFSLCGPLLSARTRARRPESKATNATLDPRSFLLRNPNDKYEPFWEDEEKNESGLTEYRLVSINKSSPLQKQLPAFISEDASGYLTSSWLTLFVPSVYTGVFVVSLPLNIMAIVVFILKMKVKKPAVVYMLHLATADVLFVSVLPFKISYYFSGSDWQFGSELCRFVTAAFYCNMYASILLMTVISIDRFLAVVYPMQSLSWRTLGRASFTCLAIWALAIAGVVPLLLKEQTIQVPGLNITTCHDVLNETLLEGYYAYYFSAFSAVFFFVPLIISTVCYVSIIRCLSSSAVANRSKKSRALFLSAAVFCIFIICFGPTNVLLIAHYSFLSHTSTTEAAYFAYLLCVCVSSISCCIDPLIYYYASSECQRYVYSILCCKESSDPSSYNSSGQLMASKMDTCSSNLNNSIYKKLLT
The experiment can be described thus: Agonist activity at human PAR1 expressed in African green monkey COS7 cells assessed as stimulation of inositol triphosphate production. The experiment is classed as functional, cell-based, COS-7.

For experiment [16], the target named is T1, Proteinase-activated receptor 2. In words: Agonist activity at PAR2 in human 16HBE14o- cells assessed as increase in MAPK level. Format: cell-based.
Experiment [17] shares this target. In words: Agonist activity at PAR2 in human 16HBE14o- cells assessed as increase in intracellular calcium level. The experiment is classed as functional, cell-based.
The target is the same in experiment [18]. The experiment can be described thus: Antagonist activity at human PAR2 expressed in human A549 cells coexpressing TACR1 assessed as inhibition of substance P-induced IL-8 production by ELISA. The experiment is classed as cell-based.
Experiment [19] shares this target. In words: Antagonist activity at human PAR2 expressed in human A549 cells assessed as inhibition of 2f-LIGRLO-NH2-induced NFkappaB activation by luciferase reporter gene assay. The experiment is classed as cell-based.

As a reminder, the IC50 is the midpoint of a concentration-inhibition curve. Turning to `CC[C@H](C)[C@H](NC(=O)[C@H](CC1CCCCC1)NC(=O)c1ccno1)C(=O)N1CCC2(CCc3ccccc32)CC1`, in experiment [1], the IC50 was found to be 2000 nM.

Consider `CC[C@H](C)[C@H](NC(=O)[C@H](CC1CCCCC1)NC(=O)c1ccno1)C(=O)N1CCC2(C=Cc3ccccc32)CC1`, for which, in experiment [1], the IC50 stood at 1000 nM.

In the case of `COc1ccc(Br)c(C(=O)Nn2c(-c3ccc(F)cc3)nc3ccccc3c2=O)c1`, the IC50 in experiment [2] came out at 34000 nM.

`Cc1cccc(Cn2c(C)nc3cc(C(=O)N4CCCCC4)ccc32)c1`: the IC50 in experiment [2] is 243000 nM.

Take `CC[C@H](C)[C@H](NC(=O)[C@H](CC1CCCCC1)NC(=O)c1ccno1)C(=O)NCc1ccccc1OC`: the IC50 in experiment [3] stood at 400 nM; in experiment [4], 1900 nM.

What is called Ki is the dissociation constant of the complex between target and ligand, obtained from inhibition or displacement. On to `NCCCC[C@H](NC(=O)CNC(=O)Nc1ccc2c(c1)c(CN1CCCC1)cn2Cc1c(Cl)cccc1Cl)C(=O)N[C@@H](Cc1ccccc1)C(=O)NC(c1ccccc1)c1ccccc1`, for which, in experiment [5], the IC50 amounted to 1100 nM. Further, the Ki in experiment [6] is 600 nM.

The term EC50 denotes the concentration that produces a half-maximal response. As to `C/C(=N\NC(=O)[C@@H]1C(=O)NC[C@H]1c1ccccc1)c1cccc(Br)c1`, the concentration giving a half-maximal response (EC50) in experiment [7] and in [8] was 30 nM throughout.

Consider `CC[C@H](C)[C@H](NC(=O)[C@H](CC(C)C)NC(=O)c1ccco1)C(=O)NCC(=O)N[C@@H](CCCN=C(N)N)C(=O)N[C@@H](CC(C)C)C(=O)N[C@@H](CCCN)C(N)=O` (2Furoyl-LIGRL[Orn]-NH2), for which the EC50 in experiment [9] amounted to 200 nM. In experiment [10], the IC50 was 100 nM.

Turning to `CC[C@H](C)[C@H](NC(=O)[C@H](Cc1ccc([N+](=O)[O-])cc1)NC(=O)[C@H](CCCN=C(N)N)NC(=O)CNC(=O)[C@@H](NC(=O)[C@H](CC(C)C)NC(=O)c1ccco1)[C@@H](C)CC)C(N)=O` (2Furoyl-LIGR[Phe(4-NO2)]I-NH2), the EC50 in experiment [9] was determined as 200 nM.

On to `CC(C)C[C@H](NC(=O)[C@H](CC(C)C)NC(=O)[C@H](CO)NC(=O)[C@@H](N)Cc1ccccc1)C(=O)N[C@@H](CCCNC(=N)N)C(=O)N[C@@H](Cc1ccc(O)cc1)C(N)=O` (H-FSLLRY-NH2), for which the IC50 in [11] turned out to be 50000 nM.

As to `CC[C@H](C)[C@H](NC(=O)[C@H](CO)NC(=O)[C@@H](N)CC(C)C)C(=O)NCC(=O)N[C@@H](CCCNC(=N)N)C(=O)N[C@@H](CC(C)C)C(N)=O` (H-LSIGRL-NH2), the IC50 in [11] stood at 50000 nM.

Take `CC(C)C[C@H](NC(=O)[C@H](CC(C)C)NC(=O)[C@H](CO)NC(=O)[C@H](Cc1ccccc1)NC(=O)[C@H](CCCNC(=N)N)NC(=O)[C@@H](N)CCCNC(=N)N)C(=O)N[C@@H](CCCNC(=N)N)C(=O)N[C@@H](Cc1ccc(O)cc1)C(N)=O` (H-RRFSLLRY-NH2): the IC50 in experiment [12] was determined as 700000 nM.

In [13], `CC[C@H](C)[C@H](NC(=O)[C@H](CC(C)C)NC(=O)[C@@H](N)CO)C(=O)NCC(=O)N[C@@H](CCCNC(=N)N)C(=O)N[C@@H](CC(C)C)C(N)=O` (H-SLIGRL-NH2) returned an EC50 of 5000 nM.

In the case of `CCCCCCCCCCCCCCCC(=O)NCC(=O)N[C@@H](CC(=O)O)C(=O)N[C@@H](CCC(=O)O)C(=O)N[C@@H](CC(N)=O)C(=O)N[C@@H](CO)C(=O)N[C@@H](CCC(=O)O)C(=O)N[C@@H](CCCCN)C(=O)N[C@@H](CCCCN)C(=O)N[C@@H](CCCNC(=N)N)C(=O)N[C@@H](CCCCN)C(=O)N[C@@H](CCC(N)=O)C(=O)N[C@@H](C)C(=O)N[C@H](C(=O)N[C@@H](CCCCN)C(=O)O)[C@@H](C)CC` (Palmitoyl-GDENSEKKRKQAIK-OH), the Activity in experiment [14] worked out at 53%.

`CCCCCCCCCCCCCCCC(=O)N[C@@H](CCCN=C(N)N)C(=O)N[C@@H](CS)C(=O)N[C@@H](CC(C)C)C(=O)N[C@@H](CO)C(=O)N[C@@H](CO)C(=O)N[C@@H](CO)C(=O)N[C@@H](C)C(=O)N[C@H](C(=O)N[C@@H](C)C(=O)N[C@@H](CC(N)=O)C(=O)N[C@@H](CCCN=C(N)N)C(=O)N[C@@H](CO)C(=O)N[C@@H](CCCCN)C(=O)N[C@@H](CCCCN)C(=O)N[C@@H](CO)C(=O)N[C@@H](CCCN=C(N)N)C(=O)N[C@@H](CC(C)C)C(=O)N[C@@H](Cc1ccccc1)C(=O)O)C(C)C` (Palmitoyl-RCLSSSAVANRSKKSRLF-OH): in experiment [15], the EC50 turned out to be 180 nM.

For `CCCCCCCCCCCCCCCC(=O)OCCOCCOCCNCCC[C@H](NC(=O)[C@H](CC(C)C)NC(=O)[C@H](CCCNC(=N)N)NC(=O)CNC(=O)[C@@H](NC(=O)[C@H](CC(C)C)NC(=O)c1csc(N)n1)[C@@H](C)CC)C(N)=O` ({4Thiazolecarbonyl(2-NH2)}-LIGRL[X1]-NH2), the results for the EC50 in experiment [16] and in experiment [17] were 10 nM and 4 nM, respectively.

In the case of `CC(C)[C@]12O[C@H]1[C@@H]1O[C@]13[C@]1(O[C@H]1C[C@H]1C4=C(CC[C@@]13C)C(=O)OC4)[C@@H]2O` [TRIPTOLIDE], the IC50 in experiment [18] was 23 nM; in experiment [19] it was 14 nM.
